# In publication PMC9179341, “Design of New Potent and Selective Thiophene-Based KV1.3 Inhibitors and Their Potential for Anticancer Activity” (Cancers, 2022):
# Tested on: Colo-357
# Assay: not given
# Set-up: method as in PMID 29034212
# Conditions: read-out: EC50 cell death; cited from earlier work
row,SMILES,EC50
1,O=C(NCCC[P+](c1ccccc1)(c1ccccc1)c1ccccc1)Oc1ccc(OCCCCOc2c3ccoc3cc3oc(=O)ccc23)cc1 [PCARBTP],2 µM
2,O=c1ccc2c(OCCCCOc3ccc(CCC[P+](c4ccccc4)(c4ccccc4)c4ccccc4)cc3)c3ccoc3cc2o1 [PAPTP],3.7 µM

# Tested on: Panc-1 cell line
# Assay: not given
# Set-up: method as in PMID 29034212
# Conditions: Panc-1 cell line; read-out: EC50 decrease of cell survival; cited from earlier work
row,SMILES,EC50
1,O=C(NCCC[P+](c1ccccc1)(c1ccccc1)c1ccccc1)Oc1ccc(OCCCCOc2c3ccoc3cc3oc(=O)ccc23)cc1 [PCARBTP],~6 µM
2,O=c1ccc2c(OCCCCOc3ccc(CCC[P+](c4ccccc4)(c4ccccc4)c4ccccc4)cc3)c3ccoc3cc2o1 [PAPTP],~3 µM

# Target: T1, KV1.3 (Homo sapiens, UniProt P22001)
# T1 sequence (P22001 whole entry): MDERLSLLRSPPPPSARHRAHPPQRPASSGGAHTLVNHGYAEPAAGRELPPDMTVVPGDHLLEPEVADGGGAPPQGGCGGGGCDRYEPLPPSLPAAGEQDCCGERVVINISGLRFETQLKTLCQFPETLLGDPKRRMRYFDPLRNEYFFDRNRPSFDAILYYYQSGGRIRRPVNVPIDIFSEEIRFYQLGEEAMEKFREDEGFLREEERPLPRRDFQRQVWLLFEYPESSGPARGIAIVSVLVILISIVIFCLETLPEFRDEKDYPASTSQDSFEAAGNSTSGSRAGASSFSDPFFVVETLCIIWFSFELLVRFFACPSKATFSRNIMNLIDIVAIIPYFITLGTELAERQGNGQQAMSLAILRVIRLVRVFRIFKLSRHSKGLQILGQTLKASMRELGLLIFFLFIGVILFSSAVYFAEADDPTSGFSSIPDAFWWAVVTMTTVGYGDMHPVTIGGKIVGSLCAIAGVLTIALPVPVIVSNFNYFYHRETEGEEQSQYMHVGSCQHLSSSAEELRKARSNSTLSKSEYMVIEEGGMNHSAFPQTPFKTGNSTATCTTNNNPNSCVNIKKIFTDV
# Assay: KV1.3 inhibition, HiClamp on Xenopus laevis oocytes
# Assay type: cell-based
# Conditions: Xenopus laevis oocytes (marked * in Table 2)
# Procedure: (§1) Stage V–VI oocytes were isolated by partial ovariectomy from Xenopus laevis frogs (African clawed frogs). […] After anaesthetizing the frogs by a 15-min submersion in 0.1% tricaine methanesulfonate (amino benzoic acid ethyl ester; Merck, Kenilworth, NJ, USA), pH 7.0, the oocytes were collected. The isolated oocytes were then washed with a 1.5 mg/mL collagenase solution for 2 h to remove the follicle layer.
# (§2) Ion channels (Kv1.x, Kv2.1, Kv4.2, Kv10.1) were expressed in Xenopus laevis oocytes by linearization of the plasmids and subsequent in vitro transcription using a commercial T7 or SP6 mMESSAGE mMACHINE transcription kit (Ambion, Carlsbad, California, USA). Defolliculated Xenopus oocytes were then injected with 20–50 nL of the cRNA at a concentration of 1 ng/nL using a micro-injector (Drummond Scientific1, Broomall, PA, USA). The oocytes were incubated in a solution containing (in mM): NaCl, 96; KCl, 2; CaCl2, 1.8; MgCl2, 2 and HEPES, 5 (pH 7.5), supplemented with 50 mg/L gentamycin sulfate and 90 mg/L theophylline.
# (§3) Two-electrode voltage-clamp recordings were performed at room temperature (18–22 °C) using a Geneclamp 500 amplifier (Molecular Devices, San Jose, CA, USA) and pClamp data acquisition (Axon Instruments, Union City, CA, USA) and using an integrated digital TEVC amplifier controlled by HiClamp, an automated Voltage-Clamp Screening System (Multi Channel Systems MCS GmbH, Reutlingen, Germany). Whole-cell currents from oocytes were recorded 1–4 days after injection. The bath solution composition was ND96 (in mM): NaCl, 96; KCl, 2; CaCl2, 1.8; MgCl2, 2 and HEPES, 5 (pH 7.5). Voltage and current electrodes were filled with a 3 M solution of KCl in H2O. […] The elicited Kv1.x, Kv2.1, Kv4.2 and Kv10.1 currents were filtered at 0.5 kHz and sampled at 2 kHz using a four-pole low-pass Bessel filter. Leak subtraction was performed using a P/4 protocol.
# (§4) For the electrophysiological analysis of the compounds, a number of protocols were applied from a holding potential of −90 mV. Currents for Kv1.x, Kv2.1, Kv4.2 and Kv10.1 were evoked by 1 s depolarizing pulses either to 0 mV or to a range of voltage steps between −80 mV and +40 mV. For the analysis of the data, only the inhibition at the 0 mV step was used. The concentration dependency of all compounds was assessed by measuring the current inhibition in the presence of increasing compound concentrations. […] From this stock solution, adequate dilutions with a maximum of 0.5% DMSO were made for testing.
# (§5) All electrophysiological data (Figure S1) are presented as means ± S.E.M of n ≥ three independent experiments unless otherwise indicated. […] The Dunnett test and one-way ANOVA were performed to calculate the significance of the induced inhibition compared to the control.
row,SMILES,IC50
1,COc1cc(C)ccc1C(=O)NCC1(c2ccsc2)CCOCC1 [Compound 51],2.92 µM
2,COc1cc(C)ccc1C(=O)NCC1(c2ccccc2)CCOCC1 [Compound 36],1.65 µM

# Target: T1, KV1.3
# Assay: KV1.3 inhibition, manual voltage-clamp on Xenopus laevis oocytes
# Assay type: cell-based
# Conditions: 10 μM; manual voltage-clamp on Xenopus laevis oocytes
# Procedure: as §1, §2, §3, §4, §5
row,SMILES,inhibition at 10 µM
1,COc1ccccc1C(=O)NCC1(c2ccccc2)CCCC1 [Compound 10],< 10%
2,COc1ccc(-c2csc(C3(CNC(=O)c4ccccc4OC)CCOCC3)n2)cc1 [Compound 39],< 10%
3,COc1ccccc1C(=O)NCC1(c2cccc(C)c2)CCCCC1 [Compound 20],27 ± 2%
4,COc1cccc(C2(CNC(=O)c3ccccc3OC)CCCC2)c1 [Compound 11],18 ± 3%
5,CCOc1ccccc1C(=O)NCC1(c2ccsc2)CCOCC1 [Compound 47],35 ± 8%
6,COc1ccccc1C(=O)NCC1(c2ccc3c(c2)OCO3)CCCC1 [Compound 9],< 10%
7,COc1ccccc1C(=O)NCC1(c2ccc(C(F)(F)F)cc2)CCCCC1 [Compound 17],< 10%
8,COc1cccc(OC)c1C(=O)NCC1(c2ccsc2)CCOCC1 [Compound 45],< 10%
9,COc1ccc(C2(CNC(=O)c3ccccc3OC)CCCC2)cc1OC [Compound 8],< 10%
10,COc1ccccc1C(=O)NCC1(c2ccsc2)CCCCC1 [Compound 21],30 ± 8%
11,COc1ccccc1C(=O)NCC1(c2nc(-c3ccccc3)cs2)CCOCC1 [Compound 40],< 10%
12,O=C(NCC1(c2ccccc2)CCOCC1)c1ccsc1 [Compound 31],11 ± 4%
13,COc1ccccc1C(=O)NCC1(c2cccs2)CCCC1 [Compound 13],57 ± 9%
14,COc1ccccc1CC(=O)NCC1(c2ccsc2)CCOCC1 [Compound 49],43 ± 1%
15,COc1ccccc1CC(=O)NCC1(c2ccccc2)CCOCC1 [Compound 33],38 ± 5%
16,COc1cccc(C2(CNC(=O)c3ccccc3OC)CCCCC2)c1 [Compound 19],12 ± 2%
17,COc1ccccc1C(=O)NCC1(c2cscn2)CCOCC1 [Compound 42],54 ± 10%
18,COc1ccccc1C(=O)NCC1(c2ccccc2OC)CCCCC1 [Compound 18],< 10%
19,O=C(NCC1(c2ccccc2)CCOCC1)c1ccoc1 [Compound 32],27 ± 6%
20,COc1ccc(F)cc1C(=O)NCC1(c2ccsc2)CCOCC1 [Compound 50],47 ± 9%
21,O=C(NCC1(c2ccsc2)CCOCC1)c1ccoc1 [Compound 46],21 ± 6%
22,COc1ccc(C2(CNC(=O)c3ccccc3OC)CCCCC2)cc1OC [Compound 15],< 10%
23,COc1ccccc1C(=O)NCC1(c2ccccc2OC)CCCC1 [Compound 7],< 10%

# Next, values leading:
row,inhibition at 10 µM,SMILES
1,59 ± 5%,COc1ccc(C2(CNC(=O)c3ccccc3OC)CCOCC2)cc1 [Compound 24]
2,74 ± 9%,CCOc1ccccc1C(=O)NCC1(c2ccccc2)CCOCC1 [Compound 35]
3,< 10%,COc1ccc(C2(CNC(=O)c3ccccc3OC)CCOCC2)cc1OC [Compound 23]
4,82 ± 1%,COc1cc(C)ccc1C(=O)NCC1(c2ccsc2)CCOCC1 [Compound 51]
5,87 ± 4%,COc1ccccc1C(=O)NCC1(c2cccc(C)c2)CCOCC1 [Compound 29]
6,< 10%,COc1cccc(OC)c1C(=O)NCC1(c2ccccc2)CCOCC1 [Compound 30]
7,60 ± 9%,COc1ccccc1C(=O)NCC1(c2ccc3c(c2)OCO3)CCOCC1 [Compound 26]
8,< 10%,COc1ccccc1C(=O)NCC1(c2csc3ccccc23)CCOCC1 [Compound 38]
9,89 ± 4%,COc1cc(C)ccc1C(=O)NCC1(c2ccccc2)CCOCC1 [Compound 36]
10,< 10%,COc1ccc(C2(CNC(=O)c3ccccc3OC)CCCCC2)cc1 [Compound 16]
11,47 ± 1%,COc1ccc(C)cc1C(=O)NCC1(c2ccccc2)CCOCC1 [Compound 34]
12,88 ± 4%,COc1cccc(C2(CNC(=O)c3ccccc3OC)CCOCC2)c1 [Compound 28]
13,42 ± 6%,COc1ccc(C)cc1C(=O)NCC1(c2ccsc2)CCOCC1 [Compound 48]
14,41 ± 10%,COc1ccccc1C(=O)NCC1(c2csc(C)n2)CCOCC1 [Compound 41]
15,78 ± 4%,COc1ccccc1C(=O)NCC1(c2ccccc2OC)CCOCC1 [Compound 27]
16,< 10%,COc1ccccc1C(=O)NCC1(c2ccc(C(F)(F)F)cc2)CCOCC1 [Compound 22]
17,16 ± 4%,COc1ccccc1C(=O)NCC1(c2cccc(C)c2)CCCC1 [Compound 12]
18,< 10%,COc1ccc(C2(CNC(=O)c3ccccc3OC)CCCC2)cc1 [Compound 6]
19,52 ± 8%,COc1ccccc1C(=O)NCC1(c2ccc(C)cc2)CCOCC1 [Compound 25]

# Same assay, conditions: KV1.3; manual voltage-clamp, Xenopus laevis oocytes
row,SMILES,IC50
1,COc1ccccc1C(=O)NCC1(c2cccc(C)c2)CCOCC1 [Compound 29],4.3 µM
2,COc1cccc(C2(CNC(=O)c3ccccc3OC)CCOCC2)c1 [Compound 28],5.75 µM
